According to patent EP4342890A1, “PLATFORM AND SCAFFOLD FOR FAP TARGETING AGENTS” (Erasmus University Rotterdam Medical Center, priority 2022, dated 2024):

Assays:
FAP = target: T1, FAP (Homo sapiens, UniProt Q12884); experiment: Competitive binding assay against [111In]In-FAPI-46 in HT-1080.hFAP cells; parameters: expressed in transfected cells; host or cells: HT-1080.hFAP cells; details: competition with [111In]In-FAPI-46 in HT-1080.hFAP cells, 37 °C, 1 h; unit inferred
T1 sequence (Q12884 1-760): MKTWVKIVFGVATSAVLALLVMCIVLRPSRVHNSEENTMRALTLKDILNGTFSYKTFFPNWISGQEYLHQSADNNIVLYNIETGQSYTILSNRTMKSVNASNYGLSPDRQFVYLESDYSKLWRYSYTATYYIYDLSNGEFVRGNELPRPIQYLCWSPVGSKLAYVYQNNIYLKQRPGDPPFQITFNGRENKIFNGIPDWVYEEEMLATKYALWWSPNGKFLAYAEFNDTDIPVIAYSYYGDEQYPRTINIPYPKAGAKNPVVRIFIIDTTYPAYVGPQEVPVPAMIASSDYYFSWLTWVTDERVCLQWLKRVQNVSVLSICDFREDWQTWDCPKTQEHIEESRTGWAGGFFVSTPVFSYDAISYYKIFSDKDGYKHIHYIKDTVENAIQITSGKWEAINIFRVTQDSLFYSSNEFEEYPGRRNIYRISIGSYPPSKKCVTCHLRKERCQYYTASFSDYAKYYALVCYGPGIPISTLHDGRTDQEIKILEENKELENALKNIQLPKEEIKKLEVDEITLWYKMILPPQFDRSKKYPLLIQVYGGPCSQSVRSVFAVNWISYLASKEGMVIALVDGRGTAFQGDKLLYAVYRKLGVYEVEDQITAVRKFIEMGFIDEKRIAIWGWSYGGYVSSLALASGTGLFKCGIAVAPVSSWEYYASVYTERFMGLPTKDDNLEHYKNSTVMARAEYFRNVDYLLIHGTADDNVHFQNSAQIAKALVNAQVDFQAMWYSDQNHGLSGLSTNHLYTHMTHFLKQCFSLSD
Protocol: The U-87 MG glioblastoma was cultured at 37 °C and 5% CO2 in Dulbecco's Modified Eagle Medium (DMEM) supplemented with 10 % (v/v) fetal calf serum. HT-1080.hFAP cells were kept in culture in DMEM medium supplemented with fetal bovine serum (10%, FBS) and antibiotic antimycotic (1%, AA) at 37 °C and 5% CO2. For passaging, cells were detached using Trypsin-EDTA 0.05% when reaching 90% confluence and re-seeded at a dilution of 1:4.
Competition binding experiments were conducted by incubation of the [^111In]In-FAPI-46 radioligand with increasing concentrations of eFAP compound in HT-1080.hFAP cells at 37 °C for 1 h. Cells were then washed three times with binding buffer and lysed. The cell-associated radioactivity was measured in a γ-counter. The IC50 values were calculated by fitting the data by non-linear regression using GraphPad Prism.

DPP4 = DPP4 (Homo sapiens, UniProt P27487); experiment: In vitro inhibition assay on DPP4 (Z-GP-pNA substrate); type: biochemical; details: enzymatic assay; 20 µM Z-GP-pNA; unit inferred
Sequence of DPP4 (P27487 39-766): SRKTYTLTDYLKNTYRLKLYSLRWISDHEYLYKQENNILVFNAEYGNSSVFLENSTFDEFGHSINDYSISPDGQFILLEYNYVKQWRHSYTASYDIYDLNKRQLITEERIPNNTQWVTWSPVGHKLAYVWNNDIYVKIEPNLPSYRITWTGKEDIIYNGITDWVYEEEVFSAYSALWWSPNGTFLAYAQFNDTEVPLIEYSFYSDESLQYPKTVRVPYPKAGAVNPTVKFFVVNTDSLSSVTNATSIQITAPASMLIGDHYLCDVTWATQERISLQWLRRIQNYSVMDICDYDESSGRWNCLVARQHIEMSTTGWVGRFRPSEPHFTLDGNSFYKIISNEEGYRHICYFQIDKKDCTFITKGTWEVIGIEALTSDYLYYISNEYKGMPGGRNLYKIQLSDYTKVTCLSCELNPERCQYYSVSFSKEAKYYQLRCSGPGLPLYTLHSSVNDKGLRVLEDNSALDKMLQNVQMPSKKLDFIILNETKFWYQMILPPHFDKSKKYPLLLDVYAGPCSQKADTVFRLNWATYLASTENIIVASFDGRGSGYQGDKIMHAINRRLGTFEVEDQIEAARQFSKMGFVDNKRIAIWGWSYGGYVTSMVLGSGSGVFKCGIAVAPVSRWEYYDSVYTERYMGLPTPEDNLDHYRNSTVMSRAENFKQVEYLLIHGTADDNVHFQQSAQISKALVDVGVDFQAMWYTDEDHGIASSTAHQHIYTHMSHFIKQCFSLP

murine FAP = target: T2, murine FAP (Mus musculus, UniProt P97321); experiment: In vitro inhibition assay on mouse FAP (Z-GP-AMC substrate); type: biochemical; details: enzymatic assay; 20 µM Z-GP-AMC, 20 nM FAP; unit inferred
T2 sequence (P97321 1-761): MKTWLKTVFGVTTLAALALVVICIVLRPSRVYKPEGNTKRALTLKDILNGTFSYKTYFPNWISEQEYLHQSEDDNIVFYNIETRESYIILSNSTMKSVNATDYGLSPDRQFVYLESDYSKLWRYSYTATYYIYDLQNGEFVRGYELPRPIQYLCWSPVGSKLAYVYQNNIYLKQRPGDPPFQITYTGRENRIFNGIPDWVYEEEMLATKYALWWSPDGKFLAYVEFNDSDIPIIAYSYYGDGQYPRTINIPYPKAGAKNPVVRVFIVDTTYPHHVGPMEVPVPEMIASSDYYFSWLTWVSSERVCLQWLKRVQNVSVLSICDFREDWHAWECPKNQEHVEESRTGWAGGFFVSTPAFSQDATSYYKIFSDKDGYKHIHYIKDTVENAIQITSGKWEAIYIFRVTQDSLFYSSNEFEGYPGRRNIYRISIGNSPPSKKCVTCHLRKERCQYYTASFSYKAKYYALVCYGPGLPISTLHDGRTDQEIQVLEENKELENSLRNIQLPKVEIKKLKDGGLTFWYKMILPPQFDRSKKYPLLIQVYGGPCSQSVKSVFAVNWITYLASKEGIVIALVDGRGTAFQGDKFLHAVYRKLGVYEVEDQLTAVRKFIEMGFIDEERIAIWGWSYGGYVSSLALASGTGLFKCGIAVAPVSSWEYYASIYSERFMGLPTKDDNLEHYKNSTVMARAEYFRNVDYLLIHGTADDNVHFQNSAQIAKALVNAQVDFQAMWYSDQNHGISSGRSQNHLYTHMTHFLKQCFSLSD
Protocol: Enzymatic activity of human FAP (hFAP) and mouse FAP (mFAP) on the Z-GP-AMC substrate was measured at room temperature on a Hidex microplate reader by monitoring the fluorescence at an excitation wavelength of 360 nm and an emission wavelength of 465 nm. The reaction mixture contained 20 µM substrate, 20 nM FAP, assay buffer (50 mM Tris, 100 mM NaCl, 1 mM EDTA, pH 7.4) and tested compound (serial dilution from 10^-6 to 10^-12) in a total volume of 50 µL.

N#C[C@@H]1CC(F)(F)CN1C(=O)CNC(=O)c1ccnc2c(OCCCNC(=O)CN3CCN(CC(=O)O)CCN(CC(=O)O)CCN(CC(=O)O)CC3)cccc12 [eFAP-6, (S)-2,2',2"-(10-(2-((3-((4-((2-(2-Cyano-4,4-difluoropyrrolidin-1-yl)-2-oxoethyl)carbamoyl)quinolin-8-yl)oxy)propyl)amino)-2-oxoethyl)-1,4,7,10-tetraazacyclododecane-1,4,7-triyl)triacetic acid]
IC50 (FAP): 0.66 nM
IC50 (DPP4): > 10000 nM
IC50 (murine FAP): 3.1 ± 2.4 nM
